Data taken from paper PMC3706402, “Identification and Expression of the CCAP Receptor in the Chagas’ Disease Vector, Rhodnius prolixus, and Its Involvement in Cardiac Control” (PLoS ONE, 2013).
“Also recorded” adds a separate entry of the source. Bridge positions count the residues as written; N and C are the ends. Ends that are not written are not given here.

Experiments:
[1] = test system: RhoprCCAPR; assay: Functional receptor expression (aequorin bioluminescence, calcium mobilization) assay in CHO-WTA11 cells; assay type: cell-based, Rhodnius prolixus; conditions: for Activation of RhoprCCAPR (in words): CHO-WTA11 cells expressing RhoprCCAPR, bioluminescent response
Procedure: The coding region of RhoprCCAPR (1,128 bp) (RhoprCCAPR) was amplified from unfed 5th instar CNS cDNA with gene specific primers (Table 1C) using a Q5 High fidelity DNA polymerase (New England Biolabs, Pickering, ON). At the 5′ end before the ATG initiation codon, the Kozak translation initiation sequence ([…]) was introduced since this is required for optimal translation by eukaryotic ribosomes (Table 1C) [26]–[28]. The PCR product was run on a 0.8% agarose gel for 40 mins (160V) and the correct size of band was excised and purified (Promega, Madison, WI, USA). This was then subcloned into the pGEM T easy vector (Promega, Madison, WI) to verify its sequence. The insert with the Kozak sequence was excised using restriction enzyme (NotI) and subcloned into the expression vector, pcDNA™3.1(+) (Invitrogen, Carlsbad, CA) to express in Chinese hamster ovary (CHO-K1) WTA11, mammalian cells (Euroscreen S. A., Belgium; provided by Prof. Dr. M. Parmentier and Dr. M. Detheux; Brussels, Belgium).
RhoprCCAPR was transiently expressed in CHO-WTA11 cells that stably express promiscuous Gα16 and apoaequorin. This cell line has been used extensively for insect GPCR functional assays. The transfection was performed using X-treme HP DNA transfection reagent (Roche Applied Science, Indianapolis, IN) with the ratio of 3 (transfection reagent) to 1 (RhoprCCAPR/pcDNA™3.1(+) or empty pcDNA™3.1(+) vector) according to the manufacture’s protocol (Roche Applied Science, Indianapolis, IN). Cells were grown in the complete Dulbecco’s Modified Eagle Medium Nutrient Mixture F12-Ham (DMEM/F12, 10% fetal bovine serum, FBA, 100 IU/ml penicillin/streptomycin (Invitrogen, Carlsbad, CA)) in the 5% CO2 37°C incubator. After 48 hours, transfected cells were incubated with 5 µM Coelentarazine for 4 hours (Invitrogen, Carlsbad, CA) at room temperature in the dark. Interaction between ligand and the cloned RhoprCCAPR leads to a bioluminescent response that is mediated by the IP3/Ca^2+ signaling pathway. The luminescence assay was performed on opaque 96-well microplates (Corning, Lowell, MA). 50 µl of cells were introduced into each well of the 96-well plate that contained either controls or different concentration of peptides (RhoprCCAP, RhoprCorazonin, RhoprAKH and GNDNFMRFa) (Table 2) and the changes of luminescence were recorded for 20 sec. Wells only containing DMEM/0.1% BSA medium served as a negative control, while wells containing 50nM ATP served as a positive control. All luminescence values were corrected for background values from wells containing only DMEM/BSA medium and all values were calculated as maximum percentage difference. The response for each ligand concentration in replica wells and from at least three replica plates was averaged for analysis. GraphPad prism 5 (version 5.03) was used to analyze and generate the data.

[2] = test system: heart of R. prolixus; conditions: cited from earlier work
[3] = test system: heartbeat frequency in some insects; conditions: 34 (so in the source); cited from earlier work
Source text: (§1) Also, these peptides are functionally inter-related. […] [33]. In M. sexta, AKH mobilize lipids from the fat body during flight or locomotion when heartbeat frequency also increases.

[4] = test system: corpora cardiaca; conditions: 33 (so in the source); cited from earlier work
Source text: as §1

[5] = test system: hindgut of R. prolixus; parameters: method as in earlier work; conditions: dose-dependent; ref 31 (so in the source); cited from earlier work
[6] = test system: midgut α-amylase and protease activity; conditions: cited from earlier work
Source text: Crustacean cardioactive peptide (CCAP) is a cyclic nonapeptide that is conserved in arthropods. CCAP was first isolated as a cardioaccelerator from the pericardial organs of the shore crab, Carcinus maenas, [8]. Later, it was biochemically isolated from the nervous system of insects, [10]. The important functions of CCAP in insects have been well documented. […] The CCAP may act in a paracrine manner, released from CCAP-containing midgut endocrine cells, [44].

[7] = test system: dorsal vessel of R. prolixus; assay: In vitro heartbeat (dorsal vessel preparation, impedance converter); parameters: species or system Rhodnius prolixus
Procedure: Adult R. prolixus were anesthetized with CO2 for 10 sec and 1 µl of 2 µg of dsCCAPR was injected into the thorax using a 5 µl Hamilton syringe to knock down RhoprCCAPR transcript levels. As a control, groups of R. prolixus were injected with either 1 µl of dsARG or had no injection. R. prolixus were left for 1 hour at room temperature to recover and then placed into an incubator at 28°C on a 16 h:8 h light/dark cycle.
In vitro heartbeat was monitored as described in Lee and Lange (2011) with minor modifications. The ventral cuticle, digestive and reproductive systems were dissected and removed under RNase free saline. The dorsal vessel and dorsal diaphragm remained attached to the dorsal cuticle. Then, the dorsal cuticle was placed onto a Sylgard-coated dissecting dish and covered with 100 µL of saline. Electrodes attached to an impedance converter (UFI model 2991, Morro Bay, CA, USA) were placed between the fifth and sixth abdominal segments on either side of the dorsal vessel anterior to the alary. The preparation was stabilized in 100 µL of saline for 10 min at room temperature, and then 50 µL of 10^−9M CCAP was exchanged for 50 µL of saline. Heartbeat frequency was measured from the traces observed on a Linear Flat-bed single channel chart recorder. The preparation was washed with saline for 5 mins post application of CCAP. Heartbeat frequency was determined for 1 min before and after the application of 10^−9M CCAP. The response to 10^−9M CCAP was quantified by measuring the increase in frequency compared to saline, which was then expressed as a percentage of the maximum change in frequency for each preparation. Pools of tissues including dorsal vessel/fat body/trachea were collected and the percentage of knockdown was measured by qPCR as indicated above.

[8] = test system: RhoprCCAPR; assay: Calcium mobilization assay with RhoprCCAPR expressed in CHO-K1 cells; assay type: cell-based, Rhodnius prolixus; conditions: without promiscuous Gα, read-out: EC50 using CHO-K1 cells
Procedure: To determine the endogenous ligand for the isolated putative RhoprCCAPR in R. prolixus, we used a calcium mobilization assay which expresses the RhoprCCAPR clone in CHO-K1 cells. […] The receptor was not activated by other peptides that were tested, including RhoprAKH, RhoprCorazonin and an extended RhoprFMRFa, GNDNFMRFa (Figure 5A, 5B, Table 2). […] Thus, our control data illustrate that the functional receptor assay system is only activated in cells that are transfected with RhoprCCAPR and not by any endogenous receptors in these CHO cells.

[9] = test system: CCAPR2; conditions: read-out: EC50, T. castaneum CCAPR2; cited from earlier work
Source text: (§2) The improved sensitivity of this cell line over CHO-K cells is due to presence of the promiscuous Gα proteins.

[10] = target: CCAP receptor (CG6111); conditions: read-out: EC50, D. melanogaster CCAP receptor (CG6111); cited from earlier work
Source text: as §2

[11] = target: CCAP receptor; conditions: read-out: EC50, A. gambiae CCAP receptor; cited from earlier work
Source text: as §2

[12] = test system: CCAPR1; conditions: read-out: EC50, T. castaneum CCAPR1; cited from earlier work
Source text: as §2

[13] = test system: oviduct of Locusta migratoria; conditions: cited from earlier work
Source text: (§3) Crustacean cardioactive peptide (CCAP) is a cyclic nonapeptide that is conserved in arthropods. CCAP was first isolated as a cardioaccelerator from the pericardial organs of the shore crab, Carcinus maenas, [8]. Later, it was biochemically isolated from the nervous system of insects, [10]. The important functions of CCAP in insects have been well documented.

[14] = test system: heart rate in Manduca sexta; conditions: cited from earlier work
Source text: as §3

[15] = test system: heart rate in Drosophila melanogaster; conditions: cited from earlier work
Source text: as §3

[16] = CHO-WTA11 cells stably expressing Gα16 and apoaequorin, luminescence recorded 20 sec, averaged from at least three replica plates

Substance: GNDNFMRF-NH2 [ExtendedFMRFa]
- Activation of RhoprCCAPR (in words) ([1]; listed as GNDNFMRFa): not activated
- EC50 (M) RhoprCCAPR [1, 16]: Not active

Substance: PFCNAFTGC-NH2 (disulfide 3-9 (inferred)) [RhoprCCAP]
- Effect on heartbeat frequency in the heart, R. prolixus (Discussion) ([2]; dose-dependent, ref 31 (so in the source)): increases heartbeat frequency and contraction in a dose-dependent manner
- Effect on heartbeat frequency, R. prolixus ([2]; in vitro, 5th instar): increases heartbeat frequency in vitro; also recorded: increases the frequency of the heartbeat in R. prolixus in a reversible, dose-dependent manner
- Effect on heartbeat frequency in some insects [3]: increase heartbeat frequency
- Effect on AKH release [4]: influences AKH release
- Effect on hindgut contraction [5]: increases heartbeat frequency and contraction in a dose-dependent manner
- Effect on enzyme secretion, P. americana [6]: regulates enzyme secretion
- Effect on α-amylase and protease activity ([6]; isolated midgut): increases α-amylase and protease activity
- Effect of CCAP on heartbeat after RhoprCCAPR knockdown (in words) ([7]; 10^−9 M CCAP, RhoprCCAPR knocked down by dsCCAPR, in vitro): loss of function; also recorded: unresponsive; also recorded: eliminates the CCAP-induced increase in vitro; also recorded: cardioacceleratory effect is abolished
- In vitro heartbeat frequency in the presence of 10^−9 M CCAP, dsARG treated bugs ([7]; dsARG-treated bugs, saline baseline 10.4±2.9, paired t test p = 0.0376, vs dsCCAPR unpaired p = 0.0318, mean ± SEM, n = 5 (Figure 6)): 15.6±3.9 beats/min
- In vitro heartbeat frequency in the presence of 10^−9 M CCAP, dsCCAPR treated bugs ([7]; dsCCAPR-treated bugs, saline baseline 5.4±3.0, paired t test p = 0.1688, vs dsARG unpaired p = 0.0318, mean ± SEM, n = 5 (Figure 6)): 4.6±3.3 beats/min
- EC50 [8]: 0.341 ± 0.0088 µM
- EC50 [1, 16]: 0.0122 µM
- EC50 [9]: 0.022 µM
- EC50 [10]: 0.00054 µM
- EC50 [11]: 0.001 µM
- EC50 [12]: 0.624 µM
- Effect on oviduct contractions [13]: modulates oviduct contractions
- Effect on heart rate, M. sexta [14]: triggers increasing heart rate
- Effect on heart rate, D. melanogaster [15]: triggers increasing heart rate

Substance: pQLTFSTDW-NH2 [RhoprAKH, adipokinetic hormone, pQLTFSTDW-NH2]
- Effect on heartbeat frequency in some insects [3]: increase heartbeat frequency
- Activation of RhoprCCAPR (in words) [1]: not activated
- Activation of RhoprCCAPR (in words) ([1]; listed as AKH): neither AKH nor corazonin activate the RhoprCCAPR
- EC50 (M) RhoprCCAPR [1, 16]: Not active

Substance: pQTFQYSRGWTN-NH2 [Corazonin]
- Effect on heartbeat frequency in some insects [3]: increase heartbeat frequency
- Activation of RhoprCCAPR (in words) [1]: neither AKH nor corazonin activate the RhoprCCAPR
- Activation of RhoprCCAPR (in words) ([1]; listed as RhoprCorazonin): not activated
- EC50 (M) RhoprCCAPR [1, 16]: Not active
